Test results published in patent publication US10526291B2, “Potent dual BRD4-kinase inhibitors as cancer therapeutics” (H. Lee Moffitt Cancer Center and Research Institute, Inc., priority 2014, dated 2020).

Biological target: BRD4 (Homo sapiens, UniProt O60885)
Assay: Differential Scanning Fluorimetry (DSF), stability of BRD4 upon ligand binding
Conditions: for ΔTm at 4 µM: 100 μM protein, 4 μM compound and 2% DMSO; for IC50: estimated
Protocol: DSF=Differential Scanning Fluorimetry; provides a measure of the increased stability of BRD4 upon ligand binding The DSF experiment was run at 100 μM protein, 4 μM compound and 2% DMSO.

ΔTm at 4 µM [°C] | IC50 [nM] | Compound
-0.29 | 27100 | CCc1cnc(Nc2ccc(N3CCOCC3)cc2)nc1Nc1cccc(S(=O)(=O)NC(C)C)c1
-0.34 | 28200 | CC(C)(C)c1cccc(Nc2nc(Nc3ccc(N4CCOCC4)cc3)ncc2Cl)c1
-0.0084 | 21800 | CCc1cnc(Nc2ccc(N3CCOCC3)cc2)nc1Nc1cccc(S(=O)(=O)NC(C)(C)C)c1
1.9 ± 0.17 | 5030 | Cc1nc(Nc2ccc(N3CCOCC3)cc2)nc(Nc2cccc(S(=O)(=O)NC(C)(C)C)c2)c1C
2.6 ± 0.15 | 2940 | CN1CCN(c2ccc(Nc3ncc(Cl)c(Nc4ccc5c(c4)OCCO5)n3)cc2)CC1
5.3 ± 0.041 | 370 | Cc1cnc(Nc2ccc(N3CCN(C)CC3)cc2)nc1Nc1cc(NS(=O)(=O)C2CC2)cc(NS(=O)(=O)C2CC2)c1
8.4 ± 0.13 | 34 | Cc1cnc(Nc2ccc(N3CCN(C)CC3)cc2)nc1Nc1ccc(Cl)c(S(=O)(=O)NC(C)(C)C)c1
6.7 ± 0.15 | 130 | CCCS(=O)(=O)Nc1cc(Nc2nc(Nc3ccc(N4CCN(C)CC4)cc3)ncc2C)ccc1Cl
3.4 ± 0.12 | 1600 | CCOC(=O)c1cnc(Nc2ccc(N3CCN(C)CC3)cc2)nc1Nc1cccc(NS(=O)(=O)C(C)(C)C)c1
6.7 ± 0.13 | 130 | Cc1ccc(Nc2nc(Nc3ccc(N4CCN(C)CC4)cc3)ncc2C)cc1S(=O)(=O)NC1CCC1
7.5 ± 0.23 | 68 | Cc1cnc(Nc2ccc(N3CCN(C)CC3)cc2)nc1Nc1cccc(NS(=O)(=O)C2(C)CC2)c1
9.1 ± 0.05 | 20 | Cc1cnc(Nc2ccc(N3CCN(C)CC3)c(F)c2)nc1Nc1cccc(NS(=O)(=O)C2(C)CC2)c1
6.7 ± 0.157 | 321 | CCCS(=O)(=O)Nc1cccc(Nc2nc(Nc3ccc(N4CCN(C)CC4)cc3)ncc2C)c1
7.93 ± 0.183 | 145 | CCS(=O)(=O)Nc1cc(Nc2nc(Nc3ccc(N4CCN(C)CC4)cc3)ncc2C)ccc1Cl
7.28 ± 0.091 | 221 | Cc1cnc(Nc2ccc(N3CCN(C)CC3)cc2)nc1Nc1ccc(Cl)c(NS(=O)(=O)CC(C)C)c1
8.89 ± 0.044 | 74.8 | Cc1cnc(Nc2ccc(N3CCN(C)CC3)c(F)c2)nc1Nc1ccc(Cl)c(NS(=O)(=O)CC(C)C)c1
9.97 ± 0.08 | 39 | Cc1cnc(Nc2ccc(N3CCN(C)CC3)cc2)nc1Nc1ccc2c(c1)N(S(=O)(=O)C(C)(C)C)CC2
11.4 ± 0.103 | 15.5 | Cc1cnc(Nc2ccc(C(=O)NC3CCN(C)CC3)c(F)c2)nc1Nc1ccc2c(c1)N(S(=O)(=O)C(C)(C)C)CCC2
12.3 ± 0.167 | 8.6 | Cc1cnc(Nc2cc(F)c(N3CCN(C)CC3)c(F)c2)nc1Nc1ccc(Cl)c(NS(=O)(=O)C2(C)CC2)c1
3.17 ± 0.142 | 3130 | Cc1cnc(Nc2ccc(N3CCN(C)CC3)cc2)nc1Nc1cccc([N+](=O)[O-])c1

Second part, the molecule before the results:

Compound | ΔTm at 4 µM [°C] | IC50 [nM]
CC(C)NS(=O)(=O)c1cccc(Nc2nc(Nc3ccc(N4CCNCC4)cc3)ncc2Br)c1 | 5 | 460
CCc1cnc(Nc2ccc(N3CCN(C)CC3)cc2)nc1Nc1cccc(S(=O)(=O)NC(C)(C)C)c1 | 3.2 | 1850
COc1ccc(Nc2nc(C)c(C)c(Nc3cccc(S(=O)(=O)NC(C)(C)C)c3)n2)cc1 | 0.22 ± 0.2 | 18300
COc1ccc(Nc2nc(C)c(C)c(Nc3cccc(S(N)(=O)=O)c3)n2)cc1 | 0.12 ± 0.13 | 19800
Cc1cnc(Nc2ccc(N3CCN(C)CC3)cc2)nc1Nc1cccc(S(=O)(=O)NC(C)C)c1 | 6 ± 0.1 | 210
CN1CCN(c2ccc(Nc3ncc(C(F)(F)F)c(Nc4cccc(S(=O)(=O)NC(C)(C)C)c4)n3)cc2)CC1 | 0.2 ± 0.082 | 18600
CC(C)(C)NS(=O)(=O)c1cccc(Nc2nc(Nc3ccc(N4CCNCC4)cc3)ncc2C(F)(F)F)c1 | 2.9 ± 0.031 | 2330
CN1CCN(c2ccc(Nc3ncc(Cl)c(Nc4ccc5c(c4)OCO5)n3)cc2)CC1 | 0.073 ± 0.083 | 20500
COc1cc(Nc2nc(Nc3ccc(N4CCN(C)CC4)cc3)ncc2Cl)c(OC)cc1Cl | 0.073 ± 0.13 | 20500
CCc1cnc(Nc2ccc(N3CCN(C)CC3)cc2)nc1Nc1ccc(Cl)c(OC)c1 | 1.3 ± 0.11 | 7980
Cc1cnc(Nc2ccc(N3CCN(C)CC3)cc2)nc1Nc1ccc(F)c(NS(=O)(=O)C(C)(C)C)c1 | 9.5 ± 0.07 | 14
Cc1cnc(Nc2ccc(N3CCN(C)CC3)cc2)nc1Nc1ccc(Cl)c([N+](=O)[O-])c1 | 2 ± 0.05 | 4700
Cc1cnc(Nc2ccc(CC(=O)N3CCN(C)CC3)cc2)nc1Nc1ccc(Cl)cc1 | 4.1 ± 0.21 | 930
Cc1cnc(Nc2ccc(CC(=O)N3CCN(C)CC3)cc2)nc1Nc1ccc(Cl)c(Cl)c1 | 4.7 ± 0.14 | 580
Cc1cnc(Nc2ccc(CC(=O)N3CCN(C)CC3)cc2)nc1Nc1ccc(Cl)c(NS(=O)(=O)C(C)(C)C)c1 | 9.8 ± 0.03 | 12
Cc1ccc(Nc2nc(Nc3ccc(C(=O)NC4CCN(C)CC4)c(F)c3)ncc2C)cc1S(=O)(=O)NC1CCC1 | 7.8 ± 0.15 | 54
Cc1ccc(Nc2nc(Nc3ccc(N4CCN(C)CC4)c(F)c3)ncc2C)cc1S(=O)(=O)NC1CCC1 | 6.8 ± 0.01 | 120
CN1CCN(c2ccc(Nc3ncc(CO)c(Nc4cccc(NS(=O)(=O)C(C)(C)C)c4)n3)cc2)CC1 | 3.1 ± 0.08 | 2000
Cc1ccc(Nc2nc(Nc3ccc(C4CCN(C)CC4)cc3)ncc2C)cc1S(=O)(=O)NC1CCC1 | 7.7 ± 0.17 | 58
Cc1cnc(Nc2ccc(N3CCN(C)CC3)cc2)nc1Nc1cccc(NS(=O)(=O)CC(C)C)c1 | 6.58 ± 0.103 | 347
Cc1cnc(Nc2ccc(N3CCN(C)CC3)c(F)c2)nc1Nc1ccc2c(c1)N(S(=O)(=O)C(C)(C)C)CC2 | 12.1 ± 0.105 | 9.8
Cc1cnc(Nc2ccc(C(=O)NC3CCN(C)CC3)c(F)c2)nc1Nc1ccc2c(c1)N(S(=O)(=O)C(C)(C)C)CC2 | 12.3 ± 0.116 | 8.6
Cc1cnc(Nc2ccc(N3CCN(C)CC3)cc2)nc1Nc1ccc2c(c1)N(S(=O)(=O)C(C)(C)C)CCC2 | 8.72 ± 0.141 | 87.3
Cc1cnc(Nc2ccc(N3CCN(C)CC3)c(F)c2)nc1Nc1ccc2c(c1)N(S(=O)(=O)C(C)(C)C)CCC2 | 10.5 ± 0.15 | 27.7
Cc1cnc(Nc2ccc(N3CCN(C)CC3)c(Cl)c2)nc1Nc1ccc(Cl)c(NS(=O)(=O)C(C)(C)C)c1 | 9.54 ± 0.163 | 51.4
Cc1cc(Nc2ncc(C)c(Nc3ccc(Cl)c(NS(=O)(=O)C(C)(C)C)c3)n2)ccc1N1CCN(C)CC1 | 10.4 ± 0.151 | 29.5
Cc1cnc(Nc2cc(F)c(N3CCN(C)CC3)c(F)c2)nc1Nc1cccc(NS(=O)(=O)C(C)(C)C)c1 | 12.8 ± 0.058 | 6.28
Cc1cnc(Nc2ccc(N3CCN(C)CC3)c(C(F)(F)F)c2)nc1Nc1cccc(NS(=O)(=O)C(C)(C)C)c1 | 8.12 ± 0.044 | 129
Cc1cnc(Nc2cc(F)c(N3CCN(C)CC3)c(F)c2)nc1Nc1ccc(Cl)c(NS(=O)(=O)C(C)(C)C)c1 | 13.8 ± 0.191 | 3.29
Cc1cnc(Nc2ccc(C(=O)NC3CCN(C)CC3)c(F)c2)nc1Nc1ccc(Cl)c(NS(=O)(=O)C2(C)CC2)c1 | 10.9 ± 0.22 | 21
